What was measured:
[1] = system: streptozotocin-induced diabetic rats; test: Oral glucose tolerance test in streptozotocin-induced diabetic rats; format: in vivo, Wistar rat; set-up: AUC of the OGTT: unit not given here
Description: After a week of acclimation, 35 male Wistar rats were given a single intraperitoneal dose of STZ (Sigma Chemical Co. Toluca, Estado de México, Mexico) at a dosage of 45 mg/kg of body weight, after fasting for 12 h overnight with free access to water. To prevent initial drug-induced hypoglycemia mortality, these animals were given a 10% sucrose solution 24 h after administration. STZ was dissolved in 0.1 M of sodium citrate buffer (pH 4.5) and administered in a final volume of 5 mL/kg. A week after STZ injection, diabetes in streptozotocin rats was confirmed by measuring fasting blood glucose (by glucose oxidase method). Animals with a blood glucose (tail vein) above 126 mg/dL were considered diabetic and used for the experiment to create groups 2, 3, 4, 5, 6, and 7 [1, 13]. Blood glucose levels were measured using a glucometer (Accu-Chek Active, Roche, Mannheim, Germany) and reactive strips (Accu-Chek Active Glucose test strips, Roche). The presence of hyperglycemia and insulin level confirmed a model very similar to T2D in humans. For the pharmacological study, the final number of animals was 35 male rats, with 3 rats being sacrificed during the treatment stage. One was administered with FC-114 and two with acarbose. The first rat was damaged during oral glucose administration in the OGTT at week 5, and the other rats had gastrointestinal complications in week 7.
(§1) The diabetic animals in group 2 (untreated) were given 4% v/v aqueous EtOH solution (vehicle of treatments) in a volume of 6.5 mL/kg body weight. The other groups (3–7) received different treatments for 14 days (weeks 5 to 7). […] All of the treatments were at equimolar doses of PIO and adjusted to the weekly weight of each rat. […] The commercial PIO tablet (30 mg) was crushed in 7.5 mL of vehicle and given to each animal in 4.0 mg/mL of suspension. The FC-114 and FC-122 suspensions were created at 6.2 and 6.0 mg/mL, respectively. The commercial acarbose tablet (50 mg) was crushed in 7.5 mL of the vehicle and given to each animal in a suspension of 6.6 mg/mL. Each suspension was used within 2 days of its preparation, and the administration volume was near to 2.5 mL for each rat.
The OGTT was carried out in weeks 3, 4, 5, 6, and 7. Prior to the OGTT, all animal groups fasted overnight for eight hours with free access to water. Each rat was weighed and then received a 2 g/kg glucose overload orally and blood samples were taken from the tail vein [13, 97]. Glucose levels were measured using a glucometer (Accu-Chek Active, Roche, Mannheim, Germany) at 0, 30, 60, 90, 120, and 180 min after glucose administration. The AUC of the OGTT was calculated using the blood glucose concentration over time and the GraphPad Prism 8.0.1 software package (GraphPad Software; Science Inc., San Diego, CA, USA) was used to compare the effectiveness of the treatments.

PTP1B1–400 = target: T1, PTP1B1–400 (Homo sapiens, UniProt P18031); test: Enzyme kinetic assay for PTP1B1–400 (pNPP substrate); format: biochemical
T1 construct: we performed an enzyme kinetic assay for PTP1B1–400
T1 sequence (P18031 1-400): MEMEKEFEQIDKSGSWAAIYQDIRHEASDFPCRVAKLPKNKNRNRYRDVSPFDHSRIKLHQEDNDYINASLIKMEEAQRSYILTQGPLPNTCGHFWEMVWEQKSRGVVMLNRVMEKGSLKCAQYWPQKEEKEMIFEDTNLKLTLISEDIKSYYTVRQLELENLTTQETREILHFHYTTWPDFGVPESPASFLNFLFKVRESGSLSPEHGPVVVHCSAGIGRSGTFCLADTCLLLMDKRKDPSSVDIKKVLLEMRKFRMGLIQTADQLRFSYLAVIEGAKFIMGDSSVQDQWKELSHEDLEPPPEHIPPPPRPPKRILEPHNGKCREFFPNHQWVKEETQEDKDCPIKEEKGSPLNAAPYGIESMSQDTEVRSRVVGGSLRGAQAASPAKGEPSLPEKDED
Text: As pointed out in this paper’s introduction, we have reported the PTP1B inhibitory activity of FC-114 and FC-122 [53]. […] Nevertheless, the inhibition type of FC-122 remained unknown to date. Therefore, we performed an enzyme kinetic assay for PTP1B1–400 [59, 60, 61] using p-nitrophenyl phosphate (pNPP) as substrate at different concentrations as well as the inhibitor. Figure 2C depicts the double reciprocal plot of Lineweaver-Burk, showing the effect of FC-122 on the PTP1B activity.
(§2) The kinetic studies for PTP1B and α-glucosidase were carried out under the same conditions described in the references.

[2] = target: α-glucosidase from Rominococcus obeum (Blautia obeum, UniProt A5ZY13); test: Enzymatic kinetics of α-glucosidase inhibition (pNPG substrate); format: biochemical
Description: as §2

PTP1B = system: PTP1B; set-up: method as in PMID 34299651; settings: cited from earlier work
[3] = system: streptozotocin-induced diabetic rats; test: Serum determinations (insulin, cholesterol) in streptozotocin-induced diabetic rats; format: in vivo, Wistar rat; settings: 14 days, FC-114 51.3 mg/kg/day
Description: To obtain serum from each rat under anesthesia, a 10 mL blood sample was taken via cardiac puncture of the exposed heart. After being left at room temperature for 10 min, the blood samples were centrifuged at 2500 rpm (1200× g) for 10 min to obtain the serum. The resulting serum was then frozen at −70 °C until needed. Prior to usage, the serum samples were thawed at room temperature.
as §1
The blood determinations were carried out using different kits: glucose (1001191, Spinreact, Girona, Spain, 1045), TAG (41032, Spinreact, LIQ557), insulin (RAB09A-1EA-KC, Sigma, 11092020), total cholesterol (41020, Spinreact, LIQ384), and HDL cholesterol (1001095, Spinreact, H166). Mathematically, the c-LDL cholesterol was determined by subtracting the HDL fraction from the total cholesterol.

[4] = Week 5 (day 1 of treatment), oral, glibenclamide 0.6, FC-114 51.3, FC-122 49.1, PIO 30, acarbose 54.3 mg/kg/day
[5] = Week 6 (day 7 of treatment), same doses
[6] = Week 7 (day 14 of treatment), same doses

Chain of α-glucosidase from Rominococcus obeum (A5ZY13 entry or part of it): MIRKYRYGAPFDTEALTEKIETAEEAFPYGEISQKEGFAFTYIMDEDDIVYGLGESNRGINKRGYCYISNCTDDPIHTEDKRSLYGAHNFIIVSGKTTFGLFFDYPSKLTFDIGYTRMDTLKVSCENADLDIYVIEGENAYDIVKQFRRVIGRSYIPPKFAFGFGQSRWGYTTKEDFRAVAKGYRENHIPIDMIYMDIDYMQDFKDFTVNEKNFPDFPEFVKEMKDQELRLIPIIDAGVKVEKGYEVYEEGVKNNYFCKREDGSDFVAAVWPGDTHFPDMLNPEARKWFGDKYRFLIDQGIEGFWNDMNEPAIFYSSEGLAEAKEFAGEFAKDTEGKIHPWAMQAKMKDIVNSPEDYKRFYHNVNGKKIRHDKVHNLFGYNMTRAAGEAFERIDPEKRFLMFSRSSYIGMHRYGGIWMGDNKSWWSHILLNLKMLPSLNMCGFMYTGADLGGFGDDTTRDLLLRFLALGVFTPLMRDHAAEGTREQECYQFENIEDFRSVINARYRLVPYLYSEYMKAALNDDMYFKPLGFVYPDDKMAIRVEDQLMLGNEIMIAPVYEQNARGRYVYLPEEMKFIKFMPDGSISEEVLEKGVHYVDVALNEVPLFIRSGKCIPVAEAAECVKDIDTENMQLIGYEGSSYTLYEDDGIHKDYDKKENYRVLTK

Structure (SMILES) | AUC of the OGTT [1, 4] | AUC of the OGTT [1, 5] | AUC of the OGTT [1, 6] | glucose blood levels in OGTT compared to untreated animals ([1]; after 14 days of administration, ANOVA/Bonferroni) | Inhibition type (PTP1B) (PTP1B1–400; Lineweaver-Burk plot) | Ki (PTP1B1–400; substrate pNPP) | Inhibition type (α-glucosidase) ([2]; Lineweaver-Burk plots) | Ki ([2]; substrate pNPG, Lineweaver-Burk) | fold better potency than acarbose (Ki) ([2]; vs acarbose) | Inhibition type (PTP1B) (PTP1B) | Ki (PTP1B) | HDL levels [3] | calculated LDL cholesterol [3] | serum insulin levels [3] | serum total cholesterol [3] | α-glucosidase inhibitory activity ([2]; range of concentrations tested)
Cc1ccc(-n2ncc3c2C(C)(C)[C@@H]2CC[C@]4(C)[C@H](C(=O)C=C5[C@@H]6C[C@@](C)(C(=O)O)CC[C@]6(C)CC[C@]54C)[C@@]2(C)C3)cc1 [FC-122] | 58,941 | 57,003 | 53,076 | ranked third | uncompetitive | 0.44 µM | linear-mixed type | 5.2 µM | ~ 5 fold | – | – | – | – | – | – | –
CC1(C)c2[nH]c3ccc(C(F)(F)F)cc3c2C[C@]2(C)[C@H]3C(=O)C=C4[C@@H]5C[C@@](C)(C(=O)O)CC[C@]5(C)CC[C@@]4(C)[C@]3(C)CC[C@@H]12 [FC-114] | 53,895 | 62,944 | 57,131 | – | – | – | – | – | – | non-competitive | 3.9 µM | without affecting | decreased | dramatically increasing trend | decreased | not active
